Assay [1] has as its target E3 ubiquitin-protein ligase Mdm2 (Homo sapiens, UniProt Q00987). Put plainly: Fluorescence Anisotropy Competition Binding Assay. Here is the method:
(§1) Inhibitory activities of NAPAs were measured by fluorescence anisotropy competition experiments. Protein was incubated with fluorescein-labeled human p53 peptide in the presence of test compound. Experiments were performed with a 70-fold molar excess of protein over labeled p53-peptide to ensure that the peptide is completely bound by the protein. […] Fluorescence anisotropy was measured at 25 deg C on a Beacon 2000 (PanVera, Madison, WI). Data points were measured in triplicate. IC50 values were calculated by nonlinear regression curve fitting.
Background: In fluorescence polarisation assays a small probe gives low polarisation when free and higher when bound to something large.

Another assay has as its target T1, Protein Mdm4 (Homo sapiens, UniProt O15151).
T1 sequence (O15151 whole entry): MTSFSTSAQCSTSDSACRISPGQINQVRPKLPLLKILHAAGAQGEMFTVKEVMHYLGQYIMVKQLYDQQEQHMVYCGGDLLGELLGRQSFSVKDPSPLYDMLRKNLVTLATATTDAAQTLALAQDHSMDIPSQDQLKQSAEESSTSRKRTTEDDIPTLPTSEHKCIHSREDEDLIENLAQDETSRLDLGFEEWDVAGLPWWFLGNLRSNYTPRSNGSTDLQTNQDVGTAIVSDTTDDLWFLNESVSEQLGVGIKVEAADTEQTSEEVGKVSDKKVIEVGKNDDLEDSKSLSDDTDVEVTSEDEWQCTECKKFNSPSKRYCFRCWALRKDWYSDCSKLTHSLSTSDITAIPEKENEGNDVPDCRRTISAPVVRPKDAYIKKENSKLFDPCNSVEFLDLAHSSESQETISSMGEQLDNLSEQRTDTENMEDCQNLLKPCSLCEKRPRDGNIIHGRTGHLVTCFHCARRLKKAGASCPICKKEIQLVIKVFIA
Put plainly: Fluorescence Anisotropy Competition Binding Assay. The procedure:
as §1

In BindingDB's records for doi:10.1016/j.bmc.2009.10.032 (NIH, 2009) one finds IC50 data, which are given here for 2 compounds.

Chain of E3 ubiquitin-protein ligase Mdm2 (Q00987 whole entry): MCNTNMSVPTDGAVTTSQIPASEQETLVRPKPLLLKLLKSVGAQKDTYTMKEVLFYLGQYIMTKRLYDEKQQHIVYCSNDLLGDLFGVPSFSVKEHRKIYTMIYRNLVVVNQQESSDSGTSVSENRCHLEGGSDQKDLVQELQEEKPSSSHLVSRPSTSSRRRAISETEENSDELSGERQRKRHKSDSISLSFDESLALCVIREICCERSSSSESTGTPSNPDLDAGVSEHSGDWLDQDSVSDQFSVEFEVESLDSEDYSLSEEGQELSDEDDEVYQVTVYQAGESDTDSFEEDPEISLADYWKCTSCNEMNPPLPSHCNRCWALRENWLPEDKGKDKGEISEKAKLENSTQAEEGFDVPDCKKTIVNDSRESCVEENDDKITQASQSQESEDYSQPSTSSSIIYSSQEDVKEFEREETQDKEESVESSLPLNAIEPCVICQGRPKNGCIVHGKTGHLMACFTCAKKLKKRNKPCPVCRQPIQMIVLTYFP

What is called IC50 is the concentration needed to halve the response being measured. A lower IC50 goes with higher potency. Turning to `CC(C)CCC(=O)NC(CCC(=O)O)CN(CCCCCC1CCCCC1)C(CCCCN)CN(CCCCc1ccc(Br)cc1)C(CCC(=O)O)CN(CCCCCc1ccc(F)cc1)CCC(N)=O` (centres undefined) [N-acylpolyamine (NAPA) scaffold, 36], the IC50 (in assay [1]; at Protein Mdm4) was above 100 µM each time.

Consider `NCCCCC(CN(C(=O)NCCc1ccc(Br)cc1)C(CCC(=O)O)CN(CCC(N)=O)C(=O)NCCCc1ccc(Br)cc1)N(CC(CCC(=O)O)NC(=O)Nc1ccccc1)C(=O)NCCCC1CCCCC1` (centres undefined) [N-acylpolyamine (NAPA) scaffold, 19], for which the IC50 in assay [1] (pH 7.6, 23 °C) was 10.5 µM; at Protein Mdm4, 7.6 µM.
